From patent US20260022143A1, “Cyclic Peptide Inhibitors of IL-23” (JANSSEN PHARMACEUTICA NV, priority 2022, published 2026)
Starred links: 1 amine or outer side, 2 acyl side, 3 side chain; linkers in the order of their positions; H or OH if unused. Positions of bridges follow the written chain, without caps; N, C: chain ends. Non-standard residues stand in square brackets, D forms with d. Residues, ends and D or L forms follow the SMILES beside them. Groups on a side chain read outwards from the residue. *: point of attachment. Me3N+(CH2)2O(CH2)2O(CH2)2CO = C[N+](C)(C)CCOCCOCCC(=O)*; Trp(7-Me) = Cc1cccc2c(C[C@H](N)C(=O)O)c[nH]c12; γGlu = O=C(O)[C@H](CCC(=O)[*:2])N[*:1]; 2Nal = N[C@@H](Cc1ccc2ccccc2c1)C(=O)O; 3Pal = N[C@@H](Cc1cccnc1)C(=O)O; Myristoyl = CCCCCCCCCCCCCC(=O)*; Lys(Me) = CNCCCC[C@H](N)C(=O)O; Pen = CC(C)(S)[C@H](N)C(=O)O; Thp = NC1(C(=O)O)CCOCC1; X3 = C[N+](C)(C)CCCCC*; AEEA = NCCOCCOCC(=O)O; Sar = CNCC(=O)O

Experiment: Exposed Polar Surface Area (EPSA)
Format: physicochemical
Conditions: SFC on Chirex 3014 column; sample 1 mM DMSO stock; read-out: EPSA
Outline: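 SFC retention on a Chirex 3014 (S-valine/(R)-1-(α-naphthyl)ethylamine) column at 35 °C, 4 mL/min, 14 MPa outlet, 5–60% methanol/20 mM ammonium formate gradient in CO2. Retention times converted to EPSA (Å²) via linear calibration with 8 standards; samples from 1 mM DMSO stock, run in duplicate.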

EPSA [A^2]	SMILES
171	CCCCCCCCCCCCCC(=O)N[C@@H](CCC(=O)NCCOCCOCC(=O)NCCOCCOCC(=O)NCCCC[C@@H]1NC(=O)[C@@H](NC(=O)[C@@H](CCCCNC(=O)COCCOCCNC(=O)COCCOCCNC(=O)CC[C@H](NC(=O)CCCCCCCCCCCCC)C(=O)O)NC(=O)CCOCCOCC[N+](C)(C)C)C(C)(C)SSC(C)(C)[C@@H](C(=O)N[C@@H](Cc2ccc(OCCCCC[N+](C)(C)C)cc2)C(=O)N[C@@H](Cc2ccc3ccccc3c2)C(=O)NC2(C(=O)N[C@@H](CCCCN(C)C(C)=O)C(=O)N[C@@H](CC(N)=O)C(=O)N[C@@H](Cc3cccnc3)C(=O)N(C)CC(=O)N(C)C)CCOCC2)NC(=O)[C@H](CCCCN(C)C(C)=O)NC(=O)[C@H](Cc2c[nH]c3c(C)cccc23)NC(=O)[C@H]([C@@H](C)O)NC1=O)C(=O)O [compound 381, cPEG3aCO-k(PEG2PEG2gEC14)-Pen(3)-K(PEG2PEG2gEC14)-T-7MeW-K(NMeAc)-Pen(3)-TMAPF-2Nal-THP-K(NMeAc)-N-3Pya-Sar-CON(Me)2] ({Me3N+(CH2)2O(CH2)2O(CH2)2CO}-[dK]([AEEA-AEEA-γGlu-Myristoyl])[Pen]K([AEEA-AEEA-γGlu-Myristoyl])T[Trp(7-Me)][Lys(Me)](Ac)[Pen]Y(X3)[2Nal][Thp][Lys(Me)](Ac)N[3Pal][Sar]-NMe2; disulfide 2-7)
161	CCCCCCCCCCCCCC(=O)N[C@@H](CCC(=O)NCCOCCOCC(=O)NCCOCCOCC(=O)NCCCC[C@@H]1NC(=O)[C@@H](NC(=O)CCOCCOCC[N+](C)(C)C)C(C)(C)SSC(C)(C)[C@@H](C(=O)N[C@@H](Cc2ccc(OCCCCC[N+](C)(C)C)cc2)C(=O)N[C@@H](Cc2ccc3ccccc3c2)C(=O)NC2(C(=O)N[C@@H](CCCCN(C)C(C)=O)C(=O)N[C@@H](CC(N)=O)C(=O)N[C@@H](Cc3cccnc3)C(=O)N(C)CC(=O)N(C)C)CCOCC2)NC(=O)[C@H](CCCCN(C)C(C)=O)NC(=O)[C@H](Cc2c[nH]c3c(C)cccc23)NC(=O)[C@H]([C@@H](C)O)NC1=O)C(=O)O [compound 388, cPEG3aCO-Pen(3)-K(PEG2PEG2gEC14)-T-7MeW-K(NMeAc)-Pen(3)-TMAPF-2Nal-THP-K(NMeAc)-N-3Pya-Sar-CON(Me)2] ({Me3N+(CH2)2O(CH2)2O(CH2)2CO}-[Pen]K([AEEA-AEEA-γGlu-Myristoyl])T[Trp(7-Me)][Lys(Me)](Ac)[Pen]Y(X3)[2Nal][Thp][Lys(Me)](Ac)N[3Pal][Sar]-NMe2; disulfide 1-6)
144	CC(=O)N(C)CCCC[C@@H]1NC(=O)[C@H](Cc2c[nH]c3c(C)cccc23)NC(=O)[C@H]([C@@H](C)O)NC(=O)[C@H](CCCCNC(=O)CCOCCOCC[N+](C)(C)C)NC(=O)[C@@H](NC(=O)CCOCCOCC[N+](C)(C)C)C(C)(C)SSC(C)(C)[C@@H](C(=O)N[C@@H](Cc2ccc(OCCCCC[N+](C)(C)C)cc2)C(=O)N[C@@H](Cc2ccc3ccccc3c2)C(=O)NC2(C(=O)N[C@@H](CCCCN(C)C(C)=O)C(=O)N[C@@H](CC(N)=O)C(=O)N[C@@H](Cc3cccnc3)C(=O)N(C)CC(=O)N(C)C)CCOCC2)NC1=O [compound 393, cPEG3aCO-Pen(3)-K(cPEG3a)-T-7MeW-K(NMeAc)-Pen(3)-TMAPF-2Nal-THP-K(NMeAc)-N-3Pya-Sar-CON(Me)2] ({Me3N+(CH2)2O(CH2)2O(CH2)2CO}-[Pen]K(Me3N+(CH2)2O(CH2)2O(CH2)2CO)T[Trp(7-Me)][Lys(Me)](Ac)[Pen]Y(X3)[2Nal][Thp][Lys(Me)](Ac)N[3Pal][Sar]-NMe2; disulfide 1-6)
